Reference: patent US20240335439A1, “USE OF AND METHOD FOR TELAPREVIR IN PREPARATION OF DRUG FOR TREATING AN ISCHEMIA/REPERFUSION INJURY AND CYTOPROTECTIVE DRUG” (THE THIRD XIANGYA HOSPITAL OF CENTRAL SOUTH UNIVERSITY, priority 2021, published 2024)

Experiments:
SH-SY5Y nerve cells = experiment: Hypoxia/reoxygenation injury of SH-SY5Y nerve cells, MTS viability and LDH release; format: cell-based; conditions: hypoxia 8 h / reoxygenation 24 h, telaprevir 1, 5, 10 μM, vs Hypoxia
Method: The measurement followed the operating instructions of a commercially available lactate dehydrogenase kit (Shanghai Beyotime Biotechnology Co., Ltd., China). Groups were designed according to experimental requirements, and a background blank control group (without cells) and a maximum enzyme release group were additionally set. An LDH release reagent in a volume of 1/10 of the original medium was added to the maximum enzyme activity well group of the sample, and the culture continued for 1 hour. 120 μL of supernatant was pipetted from each well and added to a new 96-well plate, and 60 μL of LDH detection working solution was added to each well, followed by uniform mixing and incubation at room temperature for 30 minutes (in dark). The absorbance of the sample was measured at 490 nm. Calculation: LDH release rate of cells (%)=(absorbance of the drug treatment group-absorbance of the control group)/(absorbance of the maximum enzyme release group-absorbance of the control group)×100%. When the absorbance value of each group was calculated, the absorbance value of the background blank control group was first subtracted.
SH-SY5Y nerve cells were purchased from the Xiangya Cell Bank of Central South University. […]
Cell viability was detected by MTS and cell injury was detected by an LDH release rate. […]

[1] = tested on: myocardial ischemia/reperfusion injury mouse models; experiment: Myocardial ischemia/reperfusion injury mouse model (LAD ligation 1 h, reperfusion 24 h); format: in vivo, C57BL/6J mice; conditions: telaprevir 60 mg/kg after 30 minutes of ischemia, 24 h reperfusion
Method: Experimental animals: 7-week-old male C57BL/6J mice. The experimental animals were raised for one week in an environment with a temperature of 25° C., a relative humidity of 60%, free drinking water, and timed and quantified feeding, and then administered according to the requirements of each experimental group.
Method for building a myocardial ischemia/reperfusion mouse model: After an 8-week-old male C57BL/6J mouse was anesthetized by intraperitoneal injection with 0.3% pentobarbital sodium (20 mL/kg), a trachea cannula was inserted from the mouth and secured with a pressure-sensitive adhesive. […] The chest was opened, left anterior descending (LAD) branches were ligated with 8-0 sutures, myocardial infarction can be determined when the cardiac apex turned white, and the ligation was maintained for 1 hour. […] After staining, the staining solution was removed, the heart slices were washed with PBS once, immobilized with 4% paraformaldehyde for 24 hours, and then taken out, the staining situation was observed, photos were taken, and an ischemic area and an infarct area were measured by ImageJ software. […]
Blood and myocardial tissues were collected and relevant indicators were measured: myocardial infarct area in mice was measured and serum creatine kinase activity (CK activity) was detected. […]

With `CCC[C@H](NC(=O)[C@@H]1[C@H]2CCC[C@H]2CN1C(=O)[C@@H](NC(=O)[C@@H](NC(=O)c1cnccn1)C1CCCCC1)C(C)(C)C)C(=O)C(=O)NC1CC1` [telaprevir] as the compound, how does the “cell viability (MTS) of hypoxia/reoxygenation treated SH-SY5Y cells” value (SH-SY5Y nerve cells; FIG. 5A) read?
Its value is “significantly inhibit a decrease”.

What about the “LDH release rate of hypoxia/reoxygenation treated SH-SY5Y cells” value (SH-SY5Y nerve cells; FIG. 5B) of the same compound?
The value was “significantly inhibit”.

And the “serum creatine kinase activity” value ([1]; ##P<0.01 vs I/R, FIG. 1B)?
The value was “significantly reduce”.

And the “infarct area of myocardial tissues in mice (TTC staining, AOI/AOR)” value ([1]; vs I/R, FIG. 1A)?
The value was “significantly reduce”.
